# Patent publication US4118506A, “Pharmaceutical compositions containing 1,3-dithiol-2-ylidene malonate derivatives” (Nihon Nohyaku Co., Ltd., priority 1976, dated 1978)
# How the values were obtained:
# [1] = test system: acute liver damage induced by carbon tetrachloride; experiment: protective effect on acute liver damage associated with centrilobular necrosis, carbon tetrachloride model; type: in vivo, mouse (dd strain); conditions: 250 mg/kg oral 6 h before CCl4, 24 h after CCl4
# From the text: Carbon tetrachloride (CCl4) administration induces centrilobular necrosis of the liver associated with loss of diphosphopyridine nucleotide, hepatic glycogen, coenzyme A and increase in neutral fat. Release of several enzymes from the hepatocytes, and increase of enzyme activities in the plasma are recognized as the result of the damage of the liver. A suitable means for evaluating the degree of damage induced by CCl4 or the degree of protection afforded by drugs is to study the plasma glutamic-pyruvic transaminase (p-GPT) activity.
# Methods: The test compounds were dissolved or suspended in olive oil and administered orally at the dose of 250 mg/kg to the mice (Four-week-old male mice-dd strain). After 6 hours, CCl4 was administered orally (0.05 ml/kg as olive oil solution). Animals were killed 24 hours after CCl4 administration, and the liver was grossly observed. The plasma was obtained by centrifugation. Activities of p-GPT were determined by the method of Reitman and Frankel and expressed in Karmen units.
# Score for liver damage index was as follows:
# Each figure indicates average of 5 to 6 mice. Values of p-GPT over 1,000 Karmen unit regarded as 1,000 for calculation of average for convenience.
# [2] = test system: bile flow and excretion of biliary salt; experiment: cholagogic action: bile flow and biliary salt excretion; type: in vivo, rat (SD-JCL strain); parameters: key to excretion of biliary salt: relative to 1 h pre-drug amount taken as 100
# Method: The male rat (4 week-old, SD-JCL strain) was anesthetized with sodium pentobarbital (37.5 mg/kg, intraperitoneal injection). The abdominal cavity was opened through a midline incision. The common bile duct was catheterized with polyethylene tube o.d. 0.8 mm. The catheter was brought to the outside through the abdominal incision wound prior to closing. Bile was collected from the catheter continuously with time intervals of one hour. The quantity of bile produced in one hour was determined by weighing and that of biliary salt was determined by enzymatic method (Ikagaku Jikkenho Koza 1B, Biological Constituents II, edited by Tamino […]). The amount of biliary salts was represented as chloic acid equivalent. In the representation of the results, the quantities of bile and biliary salts produced in one hour prior to the administration of drug were taken as 100. […] As reference, anethol trithion was used.
# [3] = 5 hours after administration, 200 mg/kg oral
smiles,measurement,setting,value
"CC(C)OC(=O)C(C(=O)OC(C)C)=C1SC=CS1 [Compound 4, diisopropyl 1,3-dithiol-2-ylidene malonate]",Liver Damage Index,"[1]; 0 normal, 2 slightly recognized, 4 clearly observable, 6 heavy damage, average of 5 to 6 mice",0.0
same,p-GPT,"[1]; values over 1,000 taken as 1,000",36 Karmen units
same,excretion of biliary salt,"[2]; 200 mg/kg oral, 1 hour after treatment, before treatment = 100",108 ± 15
same,excretion of biliary salt,"[2]; 200 mg/kg oral, 2 hours after treatment, before treatment = 100",132 ± 25
same,excretion of biliary salt,"[2]; 200 mg/kg oral, 3 hours after treatment, before treatment = 100",138 ± 27
same,excretion of biliary salt,"[2]; 200 mg/kg oral, 4 hours after treatment, before treatment = 100",117 ± 27
same,excretion of biliary salt,"[2]; 200 mg/kg oral, 5 hours after treatment, before treatment = 100",90 ± 21
same,amount of total biliary salts excreted relative to control,[2]; [3],1.7 times
same,quantity of total excreted bile relative to control,[2]; [3],1.2 times
same,excretion of biliary salt,"[2]; before treatment, 1 hour, taken as 100 (normalisation)",100
